The results in this text go back to patent US20250281453A1, “COMBINATION THERAPIES COMPRISING QTX125” (QUIMATRYX, S.L., priority 2022, published 2025).

Structures are written as SMILES.

Assay type in all cases: cell-based
The test system of data set [1] is Panc-1 pancreatic cancer cells. The data set is described as follows: Cell viability, hexosaminidase assay, monotherapy. The settings on record: for EC50: read-out: EC50 dose of monotherapy. The procedure:
(§1) In brief, HCT-116, MiaPaCa-2 and Panc-1 cells were thawed in high glucose DMEM (Sigma D5796) with 10% heat-inactivated Foetal Calf Serum (FCS) (PAA, A15-101)). Hep-G2 and SK-Hep1 cells were thawed in Minimum Essential Media (MEM) (Sigma M2279) with 1% non-essential amino acids (Sigma M7145), 2 mM Glutamine (Sigma G7513) and 10% FCS. SK-OV-3 cells were thawed in McCoy's 5A medium (Sigma, M8403) with 15% FCS. All cells were passaged by washing once in cation-free dPBS (Sigma, D1408), and incubated for 3 minutes with trypsin ([0.5 μg/ml]/EDTA [0.2 μg/ml] (Sigma, T4174) in dPBS). Passage was completed at 37° C., and cells were transferred to the appropriate media. Prior to seeding at defined cell density, cells were recovered in medium, centrifuged and resuspended for counting.
(§2) To prepare cells for viability assays, cells were transferred into 96 well tissue culture plates (Cultek), and resuspended in 100 µL at the following densities: 10,000 cells/well (Hep-G2 and MiaPaCa-2), 5000 cells/well (Panc-1 and SK-OV-3) or 3000 cells/well (HCT-116). Following 24 hours of incubation, media was removed and replaced with 100 µL media spiked with QTX125 and the test chemotherapeutic agents. Stock solutions for the agents used in this study are shown below in Table 1. Cells were incubated for a further 72 hours before cell viability was assessed using both ALAMAR® and hexosaminidase assays.
(§3) For the hexosaminidase assay, media containing QTX125 and the test chemotherapeutic agents was removed, and cells were washed once with PBS. 60 μL of substrate solution (containing: 7.5 mM p-nitrophenol-N-acetyl-beta-D-glucosamide [Sigma N-9376], 0.1 M sodium citrate, pH 5.0 and 0.25% Triton X-100) was added to each well and cells were incubated at 37° C. for at least 1 hour. Incubating cells in this manner causes the substrate solution to become bright yellow, at which point 90 μL of developer solution (containing 50 mM Glycine pH 10.4 and 5 mM EDTA) was added to each well. Absorbance at 410 nm was recorded using a plate reader.
(§4) A number of appropriate control samples were included. First, absorbance values measured in reagent ‘blank’ wells (containing cell culture medium and colorimetric agent only) were subtracted from ‘test’ sample-containing wells. ‘Blank’ absorbance values were routinely between 5 and 10% of the values recorded in test wells. Absorbance values recorded in test wells were then compared against wells containing (i) cells stimulated with QTX125 only; (ii) cells stimulated with sorafenib, gemcitabine or bortezomib only and/or (iii) unstimulated cells, as appropriate.
(§5) Control values were normalised to 100% and percentage (%) viability was calculated. Data were used to plot log dose-response curves using a sigmoid dose-response (variable slope) equation. EC50 values were obtained using Equation 1, where ‘X’ is the logarithmic concentration; ‘Y’ is the response output and it is assumed that Y starts at bottom of the graph and reaches the top with an overall sigmoid shape.
(§6) Prior to assessing the oncolytic efficacy of QTX125-containing combination therapies, the oncolytic effect of each test agent was assessed in isolation. Dose-response curves were produced by serial dilution (1:1), thereby allowing monotherapy EC50 values to be calculated.
(§7) Chemotherapeutic agents were added to wells at a starting concentration of 100 μM. However, it was quickly determined that it was not possible to use this range for all chemotherapeutic agents tested. An optimization study was therefore completed to identify suitable maximum (‘high’) doses for each agent and in each individual cell line.

Data set [2] deals with HCT-116 colonic cancer cells. The experiment in a line: Cell viability, hexosaminidase assay, monotherapy. The following applies: for EC50: read-out: EC50 dose of monotherapy. The procedure:
as §1, §2, §3, §4, §5, §6, §7

Data set [3] has as its system MiaPaCa-2 pancreatic cancer cells. The experiment in a line: Cell viability, hexosaminidase assay, monotherapy. The settings on record: for EC50: MIA PaCa-2, 72 h, read-out: EC50 dose of monotherapy; for percentage (%) cell viabilities: 72 hours of high-dose monotherapy (Table 2: QTX125 100, sorafenib 100, gemcitabine 100, bortezomib 1 μM). The procedure: as §1, §2, §3, §4, §5, §6, §7

Data set [4] relates to SK-OV-3 ovarian cancer cells. The data set is described as follows: Cell viability, hexosaminidase assay, monotherapy. The settings on record: for EC50: read-out: EC50 dose of monotherapy. The procedure: as §1, §2, §3, §4, §5, §6, §7
The subject of data set [5] is Hep-G2 hepatic cancer cells. The data set is described as follows: Cell viability, hexosaminidase assay, monotherapy. The following applies: for EC50: HepG2, 72 h, read-out: EC50 dose of monotherapy; for percentage (%) cell viabilities: 72 hours of high-dose monotherapy (Table 2: QTX125 5, sorafenib 100, gemcitabine 100, bortezomib 1 μM). The procedure: as §1, §2, §3, §4, §5, §6, §7

The subject of data set [6] is Panc-1 pancreatic cancer cells. The data set is described as follows: Cell viability, ALAMAR blue assay, monotherapy. The settings on record: for EC50: 72 h, read-out: EC50 dose of monotherapy. The procedure: as §1, §2
(§8) For the ALAMAR® blue assay, media containing QTX125 and the test chemotherapeutic agents was removed, and cells were stained using ALAMAR® blue (BioSource DAL 1100) for 4 hours at 37° C., following the manufacturer's instructions. Relative fluorescent intensity was measured using a Cytofluor® plate reader (Millipore) at 535/590 nm (Excitation/emission). This measure directly correlates with the number of viable cells present in each well.
as §4, §5, §6, §7
(In general: Resazurin is reduced to fluorescent resorufin, in cell work by metabolically active cells.)

In data set [7] the test system is HCT-116 colonic cancer cells. The experiment in a line: Cell viability, ALAMAR blue assay, monotherapy. The following applies: for EC50: 72 h, read-out: EC50 dose of monotherapy. The procedure:
as §1, §2, §8, §4, §5, §6, §7

Data set [8] concerns MiaPaCa-2 pancreatic cancer cells. The data set is described as follows: Cell viability, ALAMAR blue assay, monotherapy. The settings on record: for EC50: MIA PaCa-2, 72 h, 72 h, read-out: EC50 dose of monotherapy; for percentage (%) cell viabilities: 72 hours of high-dose monotherapy (Table 2: QTX125 100, sorafenib 100, gemcitabine 100, bortezomib 1 μM). The procedure:
as §1, §2, §8, §4, §5, §6, §7

The test system of data set [9] is SK-OV-3 ovarian cancer cells. The data set is described as follows: Cell viability, ALAMAR blue assay, monotherapy. The following applies: for EC50: 72 h, read-out: EC50 dose of monotherapy. The procedure:
as §1, §2, §8, §4, §5, §6, §7

Data set [10] deals with Hep-G2 hepatic cancer cells. The data set is described as follows: Cell viability, ALAMAR blue assay, monotherapy. The settings on record: for EC50: HepG2, 72 h, read-out: EC50 dose of monotherapy; for percentage (%) cell viabilities: 72 hours of high-dose monotherapy (Table 2: QTX125 5, sorafenib 100, gemcitabine 100, bortezomib 1 μM). The procedure:
as §1, §2, §8, §4, §5, §6, §7

[11] abbreviates: Homo sapiens, 72 hours of high-dose monotherapy (Table 2: QTX125 100, sorafenib 100, gemcitabine 100, bortezomib 1 μM), read-out: percentage (%) cell viabilities.
Where [12] appears, read: high-dose monotherapy, 72 hours.
The mark [13] stands for this setting: Homo sapiens, 72 hours of high-dose monotherapy (Table 2: QTX125 1, sorafenib 100, gemcitabine 10, bortezomib 1 μM), read-out: percentage (%) cell viabilities.
Where [14] appears, read: Homo sapiens, MIA PaCa-2, 72 hours of high-dose monotherapy (Table 2: QTX125 100, sorafenib 100, gemcitabine 100, bortezomib 1 μM), read-out: percentage (%) cell viabilities.
Where [15] appears, read: Homo sapiens, 72 hours of high-dose monotherapy (Table 2: QTX125 10, sorafenib 100, gemcitabine 10, bortezomib 1 μM), read-out: percentage (%) cell viabilities.
Setting [16] is: Homo sapiens, HepG2, 72 hours of high-dose monotherapy (Table 2: QTX125 5, sorafenib 100, gemcitabine 100, bortezomib 1 μM), read-out: percentage (%) cell viabilities.
Setting [17] is: 72 hours of high-dose monotherapy (Table 2: QTX125 100, sorafenib 100, gemcitabine 100, bortezomib 1 μM).
Setting [18] is: 72 hours of high-dose monotherapy (Table 2: QTX125 1, sorafenib 100, gemcitabine 10, bortezomib 1 μM).
[19] abbreviates: 72 hours of high-dose monotherapy (Table 2: QTX125 10, sorafenib 100, gemcitabine 10, bortezomib 1 μM).

One may read the EC50 as the midpoint of the concentration-response curve. As for `CC(C)C[C@H](NC(=O)[C@H](Cc1ccccc1)NC(=O)c1cnccn1)B(O)O` [bortezomib], the concentration for a half-maximal effect (EC50) in data set [1] (Homo sapiens, 72 h) turned out to be 9.3 ± 0.8 nM; in data set [2] (Homo sapiens, 72 h), 6.6 ± 0.5 nM; in [3] (Homo sapiens), 8.6 ± 0.5 nM; in data set [4] (Homo sapiens, 72 h), 6.8 ± 0.4 nM; in data set [5] (Homo sapiens) it was 16 ± 1 nM; in data set [6] (Homo sapiens) it was 6.2 nM. The EC50 in data set [7] (Homo sapiens) worked out at 7.9 ± 0.4 nM; in data set [8] (Homo sapiens) it was 13 ± 0.5 nM; in data set [9] (Homo sapiens), 7 ± 1 nM; in data set [10] (Homo sapiens), 16 ± 0.7 nM. Moreover, the viability at 1 µM in [1] (setting [11]) is 3%; in [2] (setting [13]) it was 4.9%; in data set [3] (setting [14]) it was 4.1%; in data set [4] (setting [15]), 9.3%; in [5] (setting [16]) it was 8.8%; in data set [6] (setting [11]) it was 0%. Also, the viability at 1 µM in data set [7] (setting [13]), in data set [8] (setting [14]), in [9] (setting [15]) and in [10] (setting [16]) was 0% in each case. Besides, the “reduction of the population of viable cells” value (“reduction” below) in data set [1] (setting [12]) worked out at 97%.
With `Nc1ccn([C@@H]2O[C@H](CO)[C@@H](O)C2(F)F)c(=O)n1` [gemcitabine], the “EC50 dose of monotherapy” value in data set [1] (72 h), in data set [2] (72 h), in data set [4] (72 h) and in [5] (72 h) was “resistant” throughout. The “percentage (%) cell viabilities” value in [1] (setting [17]) worked out at 62%; in data set [2] (setting [18]), 20%; in data set [3], 47%; in [4] (setting [19]), 50%; in [5], 54%; in data set [6] (setting [17]), 8.5%. Besides, the “percentage (%) cell viabilities” value in data set [7] (setting [18]) worked out at 1.9%; in data set [8], 24%; in data set [9] (setting [19]), 38%; in data set [10], 24%. The values for the EC50 in [3] (Homo sapiens) and in data set [8] (Homo sapiens) were 33 nM and 26 nM, respectively. The “reduction” value in data set [7] (setting [12]) was “more than 98%”.
Consider `CNC(=O)c1cc(Oc2ccc(NC(=O)Nc3ccc(Cl)c(C(F)(F)F)c3)cc2)ccn1` [sorafenib], for which the “percentage (%) cell viabilities” value turned out to be 4.4% in data set [1] (setting [17]); 2.4% in data set [2] (setting [18]); 4.7% in [3]; 2.3% in data set [4] (setting [19]); 1.8% in data set [5]; 0.0% in [6] (setting [17]). The “percentage (%) cell viabilities” value in data set [7] (setting [18]), in [8], in data set [9] (setting [19]) and in data set [10] was 0.0% in each case. Also, the EC50 in data set [1] (Homo sapiens, 72 h) came to 7400 ± 1000 nM; in data set [2] (Homo sapiens, 72 h) it was 3600 ± 500 nM; in data set [3] (Homo sapiens), 6800 ± 900 nM; in data set [4] (Homo sapiens, 72 h), 12700 ± 1700 nM; in [5] (Homo sapiens) it was 2700 nM; in data set [6] (Homo sapiens), 7200 ± 800 nM. The EC50 in data set [7] (Homo sapiens) is 4000 ± 600 nM; in data set [9] (Homo sapiens), 17000 ± 2800 nM; in [10] (Homo sapiens), 620 ± 160 nM. Also, the “reduction” value in [5] (setting [12]) is “more than 98%”.
